Experimental data published in patent US20240299484A1, “DILEUCINE COMPOSITIONS AND METHODS OF USE THEREOF” (Ingenious Ingredients, LP, priority 2023, published 2024).
Marks after values point to notes of the source that are not given here.

Columns and labels:
Assay type in all cases: in vivo, Swiss Albino mice
[1] = test system: iTreg; experiment: Immune health biomarkers (T helper subsets): iTreg; details: for iTreg(%) (mg/L) / iTreg(%): T helper subset in blood after 28 days, mice, n = 8; for iTreg Change over control [%]: vs Exercise Control, 28 days
Experimental: (§1) Eight 8-week-old male Swiss Albino mice per experimental group were housed in an animal room at a constant temperature (22±3° C.) and humidity (30%-70%) under a 12:12 h light-dark cycle with standard laboratory diet (Purina 5L79, Rat and Mouse 18% protein; PMI Nutrition International, Brentwood, MO, USA). Distilled water was provided ad libitum. All animal experiments were reviewed and approved by the Institutional Animal Ethical Committee (IAEC) of Radiant Research Services Pvt. Ltd (Bangalore, India). All research was conducted in accordance with the guidelines of the committee for the purpose of control and supervision of experiments on animals (CPCSEA Registration Number-1803/PO/RcBi/S/2015/CPCSEA).
(§2) After one week of acclimation, the animals were randomly divided by body weight into different groups (n=8 per group in each test) for oral treatment once a day, at approximately same time each day (+1 hour), for 28 consecutive days: (1) vehicle control; (2) paraxanthine (3) dileucine; (4) paraxanthine+dileucine; (5) L-arginine; (6) L-arginine+dileucine; (7) L-citrulline; and (8) L-citrulline+dileucine. The dose administered to the mice was calculated using US Food and Drug Administration for human equivalence doses (HED), assuming a human weight of 60 kg. The following HED were used in this study: 2,000 mg dileucine (RAMPS™, Ingenious Ingredients, L.P., Lewisville, TX, USA; mouse 411 mg/kg bw), 100 mg paraxanthine, (ENFINITY™, Ingenious Ingredients, L.P Lewisville, TX, USA; mouse dose: 20.5 mg/kg bw/day); 3,000 mg L-arginine (Nanjing Nutrabuilding Bio-tech Co., LTD., No. 270 Jiqingmen Strect, Suning Huigu, Building E6, Room 2105, Nanjing, China 210017; mouse 616.55 mg/kg bw), 3,000 mg L-citrulline (Nanjing Nutrabuilding Bio-tech Co., LTD., No. 270 Jiqingmen Street, Suning Huigu, Building E6, Room 2105, Nanjing, China 210017; mouse 616.55 mg/kg bw). 0.5% Carboxy Methyl Cellulose sodium was used as vehicle and the test item formulations were prepared daily. Dosing was conducted via oral gavage using disposable polypropylene syringes with sterilized stainless steel gavage tubes. The food intake and water consumption were monitored daily, and BW was recorded weekly. The last dose on day 28 was given 1 hour prior to testing.
(§3) Serum and plasma samples were separated by centrifuging the blood at 8000 rpm for 10 mins and analyze the below mentioned biomarkers, Biomarkers: TC, TG, LDL and HDL, CRP, Serum lactate, Ammonia, Glucose, NO, IL-2, IL-6, IL-10. Blood was collected in EDTA tubes for below mentioned biomarkers, Immune health Biomarkers (T helper subsets): TH1, TH2, TH17, Tfh, iTreg.

[2] = Forelimb grip strength test; details: for Forelimb grip strength (gf) Day −0: Day −0 (baseline), mice, n = 8; for Forelimb grip strength (gf) Day −28: Day −28, one hour after treatment, oral once a day for 28 days; for Increase strength over Day −0: Day −28 minus Day −0; for Percentage Increase over control (grip strength): increase vs Exercise Control, 28 days
Experimental: as §1, §2
The forelimb grip strength was measured on day 0 and day 28 by using a stainless-steel grill to assess muscle strength (Orchid Scientific & Innovative India Pvt Ltd, India). Grip strength was measured one hour after treatment. Briefly, each mouse was placed on a grill chamber and the steel bar is inverted; grip strength is measured by recording the time each animal holds the steel bar. The maximum time for each trial was six minutes. Each animal performed three independent trials separated by six minutes intervals and the mean of the three trials was calculated.

[3] = test system: low-density lipids (LDL); experiment: Blood lipids: LDL; details: for LDL: after 28 days of supplementation, mice, n = 8; for LDL Change over control [%]: vs Exercise Control, 28 days
Experimental: as §1, §2
(§4) All animals were euthanized by 95% CO2 after 28 days of following their assigned treatment. Blood was collected immediately after euthanization by the retro-orbital route and was immediately centrifuged at 1500×g for 10 min at 4° C. before having all serum transferred into cryogenic tubes and stored at −80° C.
as §3

[4] = test system: nitric oxide; experiment: NO signaling: nitric oxide level; details: for Nitric oxide (μmol/L) (mg/L): after 28 days of supplementation and exercise, mice, n = 8; for Nitric oxide Change over control [%]: vs Exercise Control, 28 days
Experimental: as §1, §2, §4, §3

[5] = test system: high-density lipids (HDL); experiment: Blood lipids: HDL; details: for HDL Change over control [%]: vs Exercise Control, 28 days
Experimental: as §1, §2, §4, §3

[6] = test system: IL-6; experiment: Inflammatory markers: IL-6; details: for IL-6 Change over control [%]: vs Exercise Control, 28 days
Experimental: as §1, §2, §4, §3

[7] = test system: TH17; experiment: Immune health biomarkers (T helper subsets): TH17; details: for TH17(%): T helper subset in blood after 28 days, mice, n = 8; for TH17 Change over control [%]: vs Exercise Control, 28 days
Experimental: (§5) PMI Nutrition International, Brentwood, MO, USA). Distilled water was provided ad libitum. All animal experiments were reviewed and approved by the Institutional Animal Ethical Committee (IAEC) of Radiant Research Services Pvt. Ltd (Bangalore, India). All research was conducted in accordance with the guidelines of the committee for the purpose of control and supervision of experiments on animals (CPCSEA Registration Number-1803/PO/[…]). […] (1) vehicle control; […] (4) paraxanthine+dileucine; […] The dose administered to the mice was calculated using US Food and Drug Administration for human equivalence doses (HED), assuming a human weight of 60 kg. […] Dosing was conducted via oral gavage using disposable polypropylene syringes with sterilized stainless steel gavage tubes. The food intake and water consumption were monitored daily, and BW was recorded weekly. The last dose on day 28 was given 1 hour prior to testing. Serum and plasma samples were separated by centrifuging the blood at 8000 rpm for 10 mins and analyze the below mentioned biomarkers, Biomarkers: TC, TG, LDL and HDL, CRP, Serum lactate, Ammonia, Glucose, NO, IL-2, IL-6, IL-10. Blood was collected in EDTA tubes for below mentioned biomarkers, Immune health Biomarkers (T helper subsets): […]

[8] = Effect on body weight, 28-day oral supplementation with exercise; details: for Body Weight (grams) Day −0: Day −0 (baseline); for Body Weight (grams) Day −0 / Body Weight (grams) Day −28: mice, n = 8; for Weight gain in grams: Day −0 to Day −28, oral once a day; for Body Weight (grams) Day −28: Day −28, oral once a day for 28 days; for Percentage weight loss over control: weight gain vs Exercise Control, 28 days
Experimental: as §1, §2
Individual body weights were recorded at receipt, on the day of randomization, on the first day of treatment before dosing (Day 1) and weekly thereafter. The body weight changes for all the animals were calculated and reported along with the body weight data.

[9] = test system: triglycerides (TG); experiment: Blood lipids: triglycerides; details: for TG: after 28 days of supplementation, mice, n = 8; for TG Change over control [%]: vs Exercise Control, 28 days
Experimental: as §1, §2, §4, §3

[10] = test system: IL-10; experiment: Inflammatory markers: IL-10; details: for IL-10 (pg/ml): after 28 days of supplementation and exercise, mice, n = 8; for IL-10 Change over control [%]: vs Exercise Control, 28 days
Experimental: as §1, §2, §4, §3

[11] = test system: C-reactive protein (CRP); experiment: Inflammatory markers: CRP; details: for CRP (mg/L): after 28 days of supplementation and exercise, mice, n = 8; for CRP Change over control [%]: vs Exercise Control, 28 days
Experimental: as §1, §2, §4, §3

[12] = test system: TH2; experiment: Immune health biomarkers (T helper subsets): TH2; details: for TH2(%): T helper subset in blood after 28 days, mice, n = 8; for TH2 Change over control [%]: vs Exercise Control, 28 days
Experimental: as §5

[13] = after 28 days of supplementation, mice, n = 8
[14] = after 28 days of supplementation and exercise, mice, n = 8

Row | SMILES | iTreg Change over control [%] [1] | Forelimb grip strength (gf) Day −0 [2] | Forelimb grip strength (gf) Day −28 [2] | Increase strength over Day −0 [2] | Percentage Increase over control (grip strength) [2] | LDL [3] | LDL Change over control [%] [3] | Nitric oxide (μmol/L) (mg/L) [4] | Nitric oxide Change over control [%] [4] | HDL Change over control [%] [5] | IL-6 Change over control [%] [6] | TH17(%) [7] | TH17 Change over control [%] [7] | Body Weight (grams) Day −0 [8] | Weight gain in grams [8] | Body Weight (grams) Day −28 [8] | Percentage weight loss over control [8] | TG [9] | TG Change over control [%] [9] | IL-10 (pg/ml) [10] | other results
1 | CC(C)C[C@H](NC(=O)[C@@H](N)CC(C)C)C(=O)O [Dileucine, L-Leucyl-L-leucine] | −66% | 99.25 gf | 149.0*** gf | 49.75 gf | 76% | 42.05 mg/dL | −3% | 84.83*** μmol/L | 34% | 8% | −7% | 29.62*** % | 712% | 24.09 grams | 9.14 grams | 33.23* grams | −15% | 92.66 mg/dL | −3% | 569.36*** pg/ml | iTreg(%) (mg/L) [1]: 18.68*** %; HDL [mg/dl] [5, 13]: 37.63* mg/dl; IL-6 (pg/ml) [6, 14]: 343** pg/ml; IL-10 Change over control [%] [10]: 8%; CRP (mg/L) [11]: 0.63*** mg/L; CRP Change over control [%] [11]: −18%; TH2(%) [12]: 53.68*** %; TH2 Change over control [%] [12]: 368%
2 | N=C(N)NCCC[C@H](N)C(=O)O [L-Arginine, L-arginine] | −34% | 99.75 gf | 139.13*** gf | 39.38 gf | 39% | 44.66 mg/dL | 3% | 77.98* μmol/L | 29% | 5% | −7% | 26.16*** % | 617% | 23 grams | 10.01 grams | 33.01* grams | −7% | 94.1 mg/dL | −2% | 565.47** pg/ml | iTreg(%) [1]: 35.86*** %; HDL [5, 13]: 35.86 mg/dL; IL-6 (pg/ml) [6, 14]: 351.39** pg/ml; IL-10 Change over control [%] [10]: 5%; CRP (mg/L) [11]: 0.69*** mg/L; CRP Change over control [%] [11]: −16%; TH2(%) [12]: 40.44*** %; TH2 Change over control [%] [12]: 252%
3 | NC(=O)NCCC[C@H](N)C(=O)O [L-Citrulline, L-citrulline] | −29% | 97.63 gf | 138.5*** gf | 40.87 gf | 45% | 44.01 mg/dL | 1% | 77.61 µmol/L | 28% | 4% | −7% | 25.89*** % | 609% | 22.49 grams | 9.83 grams | 33.01* grams | −9% | 94.58 mg/dL | −2% | 559.63** pg/ml | iTreg(%) [1]: 38.83*** %; HDL [5, 13]: 35.63 mg/dL; IL-6 [6, 14]: 349.52 pg/mL; IL-10 Change over control [%] [10]: 4%; CRP (mg/L) [11]: 0.69*** mg/L; CRP Change over control [%] [11]: −16%; TH2(%) [12]: 38.23*** %; TH2 Change over control [%] [12]: 234%
4 | Cn1c(=O)[nH]c2ncn(C)c2c1=O [Paraxanthine, 1,7-dimethylxanthine] | −57% | 98.38 gf | 148.88*** gf | 50.5 gf | 79% | 43.23 mg/dL | −1% | 84.29*** μmol/L | 33% | 4% | −8% | 31.33*** % | 758% | 24.35 grams | 8.86 grams | 33.21* grams | −18% | 91.94 mg/dL | −4% | 571.71*** pg/ml | iTreg(%) (mg/L) [1]: 23.68*** %; HDL [5, 13]: 36.36 mg/dL; IL-6 (pg/ml) [6, 14]: 340.6** pg/ml; IL-10 Change over control [%] [10]: 8%; CRP (mg/L) [11]: 0.64** mg/L; CRP Change over control [%] [11]: −17%; TH2(%) [12]: 53.63*** %; TH2 Change over control [%] [12]: 368%
